The record followed here is US7875715B2, “Compounds for the treatment of multi-drug resistant bacterial infections” (AstraZeneca AB, priority 2005, dated 2011).

Usually melting point stands for the temperature of the solid-liquid transition. As a reminder, the MIC is the least concentration at which growth counts as inhibited. Read a low MIC as inhibition by little substance. Usually pIC50 stands for the negative decadic logarithm of the IC50, by convention in mol/L. Higher therefore signals a low IC50.

In one series the target is GyrB ATPase (Escherichia coli, UniProt P0AES4+P0AES6). In words: ATPase assay: inhibition of GyrB ATPase activity, ammonium molybdate/malachite green phosphate detection. The format is biochemical, E. coli. Particulars: for IC50: 4 nM E. coli GyrA, 4 nM E. coli GyrB, 250 μM ATP, read-out: gyrase ATPase (converted). Here is the method:
Compounds were tested for inhibition of GyrB ATPase activity using an ammonium molybdate/malachite green-based phosphate detection assay (Lanzetta, P. A., L. J. Alvarez, P. S. Reinach, and O. A. Candia, 1979, 100: 95-97). Assays were performed in multiwell plates in 100 μl reactions containing: 50 mM TRIS buffer pH 7.5, 75 mM ammonium acetate, 5.5 mM magnesium chloride, 0.5 mM ethylenediaminetetraacetic acid, 5% glycerol, 1 mM 1,4-dithio-DL-threitol, 200 nM bovine serum albumin, 16 μg/ml sheared salmon sperm DNA, 4 nM E. coli GyrA, 4 nM E. coli GyrB, 250 μM ATP, and compound in dimethylsulfoxide. Reactions were quenched with 150 μL of ammonium molybdate/malachite green detection reagent containing 1.2 mM malachite green hydrochloride, 8.5 mM ammonium molybdate tetrahydrate, and 1 M hydrochloric acid. Plates were read in an absorbance plate reader at 625 nm and percent inhibition values were calculated using dimethylsulfoxide (2%)-containing reactions as 0% inhibition and novobiocin-containing (2 μM) reactions as 100% inhibition controls. Compound potency was based on IC50 measurements determined from reactions performed in the presence of 10 different compound concentrations.

The test system of a further series is Escherichia coli. Nature of the series: Bacterial susceptibility testing in liquid media (MIC), E. coli. The class given is cell-based. Particulars: lowest concentration reducing growth by 80% or more, 37° C., 24 hours. As to the method: (§1) Compounds were tested for antimicrobial activity by susceptibility testing in liquid media in a 96 well format. Compounds were dissolved in dimethylsulfoxide and tested in 10 doubling dilutions in the susceptibility assays. The organisms used in the assay were grown overnight on suitable agar media and then suspended in a liquid medium appropriate for the growth of the organism. The suspension was a 0.5 McFarland and a further 1 in 10 dilution was made into the same liquid medium to prepare the final organism suspension in 100 μL. Plates were incubated under appropriate conditions at 37° C. for 24 hours prior to reading. The Minimum Inhibitory Concentration (MIC) was determined as the lowest drug concentration able to reduce growth by 80% or more.
(§2) Compounds were evaluated against a panel of Gram-positive species, including Staphylococcus aureus, Streptococcus pneumoniae, Streptococcus pyogenes, and Enterococcus faecium. In addition, compounds were evaluated against a panel of Gram-negative species including Haemophilus influenzae, Escherichia coli and Moraxella catarrhalis.

The target of another series is DNA gyrase (Escherichia coli, UniProt P0AES4+P0AES6). In words: Supercoiling assay: inhibition of Escherichia coli DNA supercoiling activity. The class given is biochemical. Here is the method: Compounds were tested for inhibition of Escherichia coli DNA supercoiling activity as follows. Assays were performed in polypropylene multiwell plates in 50 μl reactions containing 35 mM Tris-HCl (pH 7.5), 24 mM KCl, 4 mM MgCl2, 2 mM dithiothreitol, 1.8 mM spermidine, 5% (v/v) glycerol, 200 nM bovine serum albumin, 1.25% (v/v) DMSO, 3 mM ATP, 10 ng/ml relaxed pBR322 plasmid, 0.6 nM DNA gyrase, and test compound. Reactions were quenched after 1 hour by the addition of 10 μl of 30% (w/v) Ficoll-400, 10 mM EDTA, and 5% sodium dodecyl sulfate. Twenty-five μl of each sample was loaded onto a 0.8% (w/v) agarose gel and electrophoresed. The gel and gel buffer contained 1×TBE buffer (89 mM Tris base, 89 mM boric acid, and 2 mM EDTA at pH 8.3). After electrophoresis for 3 hours at 70V, the gel was stained with ethidium bromide and visualized by excitation with ultraviolet light. The fluorescence intensity of the most supercoiled plasmid band was used to measure gyrase activity. Compound potency was based IC50 measurements determined from reactions performed with eight 2-fold serial dilutions of each compound and a control without compound.
DNA gyrase, sequence (P0AES4 whole entry, one chain of several): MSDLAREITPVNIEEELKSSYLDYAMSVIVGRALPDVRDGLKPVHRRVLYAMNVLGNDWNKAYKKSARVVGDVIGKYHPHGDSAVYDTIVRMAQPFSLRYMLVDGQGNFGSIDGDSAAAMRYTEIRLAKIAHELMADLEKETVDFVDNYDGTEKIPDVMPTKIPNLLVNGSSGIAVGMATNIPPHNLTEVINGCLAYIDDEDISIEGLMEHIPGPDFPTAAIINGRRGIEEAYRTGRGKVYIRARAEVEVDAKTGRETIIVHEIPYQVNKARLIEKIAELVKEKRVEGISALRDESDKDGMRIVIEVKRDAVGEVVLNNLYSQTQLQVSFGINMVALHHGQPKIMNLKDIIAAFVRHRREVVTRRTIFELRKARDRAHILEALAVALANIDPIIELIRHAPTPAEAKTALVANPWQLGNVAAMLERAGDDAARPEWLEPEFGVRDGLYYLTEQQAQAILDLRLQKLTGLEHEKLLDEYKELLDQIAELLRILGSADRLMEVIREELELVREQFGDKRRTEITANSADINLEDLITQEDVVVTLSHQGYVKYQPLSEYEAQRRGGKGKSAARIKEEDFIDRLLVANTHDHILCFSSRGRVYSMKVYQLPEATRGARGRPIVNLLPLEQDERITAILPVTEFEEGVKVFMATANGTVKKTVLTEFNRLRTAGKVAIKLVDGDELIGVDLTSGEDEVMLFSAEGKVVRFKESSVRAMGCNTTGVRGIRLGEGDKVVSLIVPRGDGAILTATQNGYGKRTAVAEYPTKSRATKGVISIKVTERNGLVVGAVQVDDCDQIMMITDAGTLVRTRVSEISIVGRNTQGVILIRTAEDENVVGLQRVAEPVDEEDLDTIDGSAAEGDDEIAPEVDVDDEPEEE

The next series deals with Streptococcus pneumoniae. In words: Bacterial susceptibility testing in liquid media (MIC), S. pneumo. The class given is cell-based. Particulars: MIC: lowest concentration reducing growth by 80% or more; 37° C., 24 hours. Here is the method:
as §1, §2

pIC50: −log10 of the molar value. In brackets after ≈: the same amount, converted by molar mass. Where a name gives a salt, the structure may show the parent alone. Read-outs that look alike come from different tables or passages of the source.

GyrB ATPase, sequence (P0AES4 whole entry, one chain of several): as above

On to `O=c1ccc2ccc(F)cc2n1CCN1CCC(NCc2cc3c(cn2)OCCO3)CC1` (as salt: HCl) [Example 10, 1-(2-{4-[(2,3-Dihydro[1,4]dioxino[2,3-c]pyridin-7-ylmethyl)amino]piperidin-1-yl}ethyl)-7-fluoroquinolin-2(1H)-one], for which the melting point is > 275 °C (dec.). On the same count and under the same terms, the figure for `COc1ccc2c(=O)ccn(CCN3CCC(NCc4cc5c(cn4)OCCO5)CC3)c2c1` (as salt: hydrochloride) [Example 2, 1-(2-{4-[(2,3-Dihydro[1,4]dioxino[2,3-c]pyridin-7-ylmethyl)amino]piperidin-1-yl}ethyl)-7-methoxyquinolin-4(1H)-one] is 260 °C; for `O=C(O)[C@H]1CN(CCn2c(=O)ccc3c(F)cc(F)cc32)CC[C@H]1NC/C=C/c1cc(F)ccc1F` (as salt: hydrochloride) [Example 13, (3S,4R)-1-[2-(5,7-Difluoro-2-oxoquinolin-1(2H)-yl)ethyl]-4-{[(2E)-3-(2,5-difluorophenyl)prop-2-en-1-yl]amino}piperidine-3-carboxylic acid] it is 150 to 180 °C.

In the case of `O=C(O)[C@@H]1CN(CCn2c(=O)ccc3c(F)cc(F)cc32)CC[C@H]1NCc1cc2c(cn1)OCCO2` (as salt: hydrochloride) [Example 16, (3R,4R)-1-[2-(5,7-Difluoro-2-oxoquinolin-1(2H)-yl)ethyl]-4-[(2,3-dihydro[1,4]dioxino[2,3-c]pyridin-7-ylmethyl)amino]piperidine-3-carboxylic acid], the melting point is > 190 °C. On the same count and under the same terms, next, `O=C(O)[C@@H]1CN(CCn2c(=O)ccc3c(F)cc(F)cc32)CC[C@H]1NC/C=C/c1cc(F)ccc1F` (as salt: hydrochloride) [Example 17, (3R,4R)-1-[2-(5,7-Difluoro-2-oxoquinolin-1(2H)-yl)ethyl]-4-{[(2E)-3-(2,5-difluorophenyl)prop-2-en-1-yl]amino}piperidine-3-carboxylic acid]: > 205 °C; `O=C1COc2ccc(CNC3CCN(CCn4c(=O)ccc5ccc(F)c(F)c54)CC3)nc2N1` (as salt: salt) [Example 7, 6-[({1-[2-(7,8-Difluoro-2-oxoquinolin-1(2H)-yl)ethyl]piperidin-4-yl}amino)methyl]-2H-pyrido[3,2-b][1,4]oxazin-3(4H)-one]: 158 to 170 °C; `O=C1COc2ccc(CNC3CCN(CCn4c(=O)ccc5c(F)cc(F)cc54)CC3)nc2N1` (as salt: salt) [Example 8, 6-[({1-[2-(5,7-Difluoro-2-oxoquinolin-1(2H)-yl)ethyl]piperidin-4-yl}amino)methyl]-2H-pyrido[3,2-b][1,4]oxazin-3(4H)-one]: 170 to 180 °C.

`O=C1COc2ccc(CNC3CCN(CCn4c(=O)ccc5ccc(F)cc54)CC3)nc2N1` (as salt: salt) [Example 9, 6-[({1-[2-(7-Fluoro-2-oxoquinolin-1(2H)-yl)ethyl]piperidin-4-yl}amino)methyl]-2H-pyrido[3,2-b][1,4]oxazin-3(4H)-one] came in with a melting point of 150 to 155 °C. On the same count and under the same terms, next, `COC(=O)c1cc2ccc(OC)cc2n1CCN1CCC(NCc2cc3c(cn2)OCCO3)CC1` [Example 3, Methyl 1-(2-{4-[(2,3-dihydro[1,4]dioxino[2,3-c]pyridin-7-ylmethyl)amino]piperidin-1-yl}ethyl)-6-methoxy-1H-indole-2-carboxylate]: 130 °C.

As for `N#Cc1ccc2ccc(=O)n(CCN3CCC(NCc4cc5c(cn4)OCCO5)CC3)c2c1` [Example 5, 1-(2-{4-[(2,3-Dihydro[1,4]dioxino[2,3-c]pyridin-7-ylmethyl)amino]piperidin-1-yl}ethyl)-2-oxo-1,2-dihydroquinoline-7-carbonitrile], the IC50 at GyrB ATPase is 157 nM; on DNA gyrase (0.6 nM DNA gyrase, relaxed pBR322 plasmid, 1 hour, read-out: gyrase supercoiling (converted)) it was 114 nM. In the series with Escherichia coli, this compound yielded an MIC of 0.5 µg/mL (≈ 1.12 µM). In the series on Streptococcus pneumoniae, this compound returned a S. pneumo of 0.12 microgram/ml.

Compound `N#Cc1ccc2ccc(=O)n(CCN3CCC(NCc4ccc5c(n4)NC(=O)CO5)CC3)c2c1` [Example 6, 2-Oxo-1-[2-(4-{[(3-oxo-3,4-dihydro-2H-pyrido[3,2-b][1,4]oxazin-6-yl)methyl]amino}piperidin-1-yl)ethyl]-1,2-dihydroquinoline-7-carbonitrile] gave a melting point of 212 °C.

As for `O=C1COc2ccc(F)cc2N1CCN1CCC(NCc2cc3c(cn2)OCCO3)CC1` [Example 26, 4-(2-{4-[(2,3-Dihydro[1,4]dioxino[2,3-c]pyridin-7-ylmethyl)amino]piperidin-1-yl}ethyl)-6-fluoro-2H-1,4-benzoxazin-3(4H)-one], in the series with Escherichia coli, the lowest concentration to inhibit growth (MIC) was 1 µg/mL (≈ 2.26 µM). On DNA gyrase, this compound gave a pIC50 of 6.02. The S. pneumo with Streptococcus pneumoniae stood at 0.25 microgram/ml. As for `N#Cc1ccc2c(c1)N(CCN1CCC(NC/C=C/c3cc(F)ccc3F)CC1)C(=O)CO2` [Example 37, 4-[2-(4-{[(2E)-3-(2,5-Difluorophenyl)prop-2-en-1-yl]amino}piperidin-1-yl)ethyl]-3-oxo-3,4-dihydro-2H-1,4-benzoxazine-6-carbonitrile], the pIC50 against GyrB ATPase was 7.75. This compound also came in with an MIC in the series on Escherichia coli of 0.25 µg/mL (≈ 0.552 µM). Besides, in the series on Streptococcus pneumoniae, the S. pneumo worked out at 0.06 microgram/ml. Turning to `O=C1COc2ccccc2N1CCN1CCC(NCc2cc3c(cn2)OCCO3)CC1` [Example 49, 4-(2-{4-[(2,3-Dihydro[1,4]dioxino[2,3-c]pyridin-7-ylmethyl)amino]piperidin-1-yl}ethyl)-2H-1,4-benzoxazin-3(4H)-one], the MIC against Escherichia coli turned out to be 8 µg/mL (≈ 18.8 µM). This compound gave a pIC50 at DNA gyrase of 5.15. This compound also registered a S. pneumo in the series with Streptococcus pneumoniae of 4 microgram/ml. In the case of `Cn1c(=O)c2ccc(F)cc2n(CCN2CCC(NCc3ccc4c(n3)NC(=O)CO4)CC2)c1=O` [Example 66, 7-Fluoro-3-methyl-1-[2-(4-{[(3-oxo-3,4-dihydro-2H-pyrido[3,2-b][1,4]oxazin-6-yl)methyl]amino}piperidin-1-yl)ethyl]quinazoline-2,4(1H,3H)-dione], on GyrB ATPase, the IC50 was 622 nM. The compound further showed an MIC against Escherichia coli of 4 µg/mL (≈ 8.29 µM). The compound further yielded a S. pneumo in the series on Streptococcus pneumoniae of 8 microgram/ml.
